# Laboratory results reported in US20260201008A1, “SECRETIN-DERIVED GLP1R SELECTIVE AGONISTS” (GUBRA A/S, priority 2023, published 2026).
# Like-named read-outs stand apart in the source and are kept apart here. Numbered stars: 1 amine (or outer) side, 2 acyl side, 3 side chain; on linkers, the order of the positions; unused ones are H or OH. Square brackets hold non-standard residues; d marks the D form. Side chains are listed from the residue outwards. Peptide text beside a SMILES is read from it. * marks the point of attachment. C20 diacid = O=C(O)CCCCCCCCCCCCCCCCCCC(=O)*; γGlu = O=C(O)[C@H](CCC(=O)[*:2])N[*:1]; AEEA = NCCOCCOCC(=O)O; Aib = CC(C)(N)C(=O)O
# How the values were obtained:
# [1] = Turbidity of crude library peptides (absorbance at 600 nm); format: physicochemical; settings: Physical stability of peptides
# In short: (§1)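 Crude peptides at 267 μM in 50 mM sodium acetate pH 4.0 or 50 mM sodium phosphate pH 7.0, pre-incubated 1-2 h at room temperature, then 4 μM final ThT added. Turbidity read first as A600. ThT fluorescence (ex 450/em 480 nm) read every 10 min for 72 h at 40° C, with 5 min shaking before each read; fibril formation = average emission.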
# [2] = Fibril formation of crude library peptides (Thioflavin T); format: physicochemical; design: key: average ThT fluorescence emission at 480 nm (ex 450 nm), raw units; settings: Physical stability of peptides
# In short: as §1
# [3] = biological target: GLP1R (Homo sapiens, UniProt P43220); assay: hGLP1R potency, cAMP accumulation in CHO-K1 cells stably overexpressing hGLP1R; format: cell-based; design: host or cells: CHO-K1; settings: for EC50: cAMP accumulation; for SCTR EC50/GLP1R EC50 ratio: cAMP accumulation in CHO-K1 cells; for Selectivity: SCTR EC50/GLP1R EC50 ratio
# In short: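 Thawed cells go straight into buffer containing 0.5 mM IBMX and 0.05% casein, get graded compound doses for 30 min at room temperature, and are then assayed for accumulated cAMP by time-resolved FRET. Human GLP-1(7-36) serves as positive control; EC50 is derived by nonlinear regression.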
# [4] = biological target: SCTR (Homo sapiens, UniProt P47872); assay: hSCTR potency, cAMP accumulation in CHO-K1 cells stably overexpressing hSCTR; format: cell-based; design: alternatively Euroscreen ES-712-AF; FAST-0161L; host or cells: CHO-K1; settings: cAMP accumulation
# In short: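 Read-out is TR-FRET cAMP detection, recorded one hour after reagent addition, in CHO-K1 cells stably overexpressing hSCTR. Cells in DPBS containing 0.05% casein and 0.5 mM IBMX are exposed to graded peptide doses for 30 min at room temperature, with human secretin as reference agonist.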
# [5] = CHO-K1 cells overexpressing hGLP1R, read-out: hGLP1R pEC50 (converted)
# [6] = selectivity for hGLP1R over hSCTR
# [7] = CHO-K1 cells overexpressing hSCTR, read-out: hSCTR pEC50 (converted)
# [8] = CHO-K1 cells overexpressing hGLP1R, read-out: pEC50 hGLPR1 (converted)
# [9] = CHO-K1 cells overexpressing hSCTR, read-out: pEC50 hSCTR (converted)
# SCTR, sequence (P47872 23-440): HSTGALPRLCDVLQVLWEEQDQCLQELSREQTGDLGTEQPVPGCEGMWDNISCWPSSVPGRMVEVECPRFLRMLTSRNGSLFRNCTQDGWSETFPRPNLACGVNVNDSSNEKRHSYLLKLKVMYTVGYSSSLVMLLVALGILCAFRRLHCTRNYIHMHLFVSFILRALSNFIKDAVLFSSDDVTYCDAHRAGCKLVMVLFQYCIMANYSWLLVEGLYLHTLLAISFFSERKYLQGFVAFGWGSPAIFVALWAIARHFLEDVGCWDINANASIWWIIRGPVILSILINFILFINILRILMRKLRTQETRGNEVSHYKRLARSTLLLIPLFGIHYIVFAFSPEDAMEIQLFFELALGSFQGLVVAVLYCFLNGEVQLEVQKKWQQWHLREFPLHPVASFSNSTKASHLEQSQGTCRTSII
# GLP1R, sequence (P43220 24-463): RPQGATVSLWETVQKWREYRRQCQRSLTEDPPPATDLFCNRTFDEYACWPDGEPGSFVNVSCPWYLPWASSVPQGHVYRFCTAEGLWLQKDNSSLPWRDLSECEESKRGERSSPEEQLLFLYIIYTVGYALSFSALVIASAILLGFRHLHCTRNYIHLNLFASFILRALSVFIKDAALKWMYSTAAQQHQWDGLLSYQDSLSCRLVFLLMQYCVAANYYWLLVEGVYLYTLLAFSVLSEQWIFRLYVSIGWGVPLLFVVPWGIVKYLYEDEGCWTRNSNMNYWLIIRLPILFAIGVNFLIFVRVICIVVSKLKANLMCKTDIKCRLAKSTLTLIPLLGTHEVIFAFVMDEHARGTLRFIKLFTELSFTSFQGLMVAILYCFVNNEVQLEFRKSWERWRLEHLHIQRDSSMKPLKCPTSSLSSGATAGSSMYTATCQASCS
Compound,Turbidity (pH 7) [1],Fibril formation [2],"EC50 [3, 5]","SCTR EC50/GLP1R EC50 ratio [3, 6]","EC50 [4, 7]",Selectivity [3],"EC50 [3, 8]","EC50 [4, 9]","EC50 ([3]; CHO-K1 cells stably overexpressing hGLP1R, read-out: hGLP1R potency (pEC50) (converted))","SCTR EC50/GLP1R EC50 ratio ([3]; selectivity ratio, hSCTR vs hGLP1R)","EC50 ([4]; CHO-K1 cells stably overexpressing hSCTR, read-out: hSCTR potency (pEC50) (converted))"
CC(C)C[C@H](NC(=O)[C@H](Cc1ccccc1)NC(=O)[C@H](CCCNC(=N)N)NC(=O)[C@H](CCC(N)=O)NC(=O)[C@H](CC(C)C)NC(=O)C(C)(C)NC(=O)[C@H](C)NC(=O)[C@H](CCC(=O)O)NC(=O)[C@H](CCC(=O)O)NC(=O)[C@H](CCCCNC(=O)COCCOCCNC(=O)COCCOCCNC(=O)CC[C@H](NC(=O)CCCCCCCCCCCCCCCCCCC(=O)O)C(=O)O)NC(=O)[C@H](CC(C)C)NC(=O)[C@H](Cc1ccc(O)cc1)NC(=O)[C@H](CO)NC(=O)[C@@H]1CCCN1C(=O)[C@H](CC(=O)O)NC(=O)[C@H](CO)NC(=O)[C@@H](NC(=O)[C@H](Cc1ccccc1)NC(=O)[C@@H](NC(=O)CNC(=O)[C@H](CCC(=O)O)NC(=O)C(C)(C)NC(=O)[C@@H](N)Cc1c[nH]cn1)[C@@H](C)O)[C@@H](C)O)C(=O)N[C@@H](CCC(=O)O)C(=O)N[C@@H](Cc1c[nH]cn1)C(=O)N[C@@H](CC(C)C)C(=O)N[C@H](C(N)=O)C(C)C [compound 121] (H-H[Aib]EGTFTSDPSYLK([AEEA-AEEA-γGlu-C20 diacid])EEA[Aib]LQRFLEHLV-NH2),0.08,24767,2.51 nM,17452,39800 nM,–,–,–,–,–,–
CC[C@H](C)[C@H](NC(=O)[C@H](Cc1ccccc1)NC(=O)[C@H](CCCNC(=N)N)NC(=O)[C@H](CCC(N)=O)NC(=O)[C@H](CC(C)C)NC(=O)[C@H](C)NC(=O)[C@H](C)NC(=O)CNC(=O)[C@H](CCC(=O)O)NC(=O)[C@H](CC(C)C)NC(=O)[C@H](CC(C)C)NC(=O)[C@H](Cc1ccccc1)NC(=O)[C@H](CO)NC(=O)C(C)(C)NC(=O)[C@H](CC(=O)O)NC(=O)[C@H](CO)NC(=O)[C@@H](NC(=O)[C@H](Cc1ccccc1)NC(=O)[C@@H](NC(=O)CNC(=O)[C@H](CCC(=O)O)NC(=O)C(C)(C)NC(=O)[C@@H](N)Cc1c[nH]cn1)[C@@H](C)O)[C@@H](C)O)C(=O)N[C@@H](CCC(N)=O)C(=O)N[C@@H](Cc1c[nH]c2ccccc12)C(=O)N[C@@H](CC(C)C)C(=O)N[C@H](C(N)=O)C(C)C [compound 111] (H-H[Aib]EGTFTSD[Aib]SFLLEGAALQRFIQWLV-NH2),0.24,26712,0.0316 nM,70974,2000 nM,–,–,–,–,–,–
CC(C)C[C@H](NC(=O)[C@H](Cc1ccccc1)NC(=O)[C@H](CCCNC(=N)N)NC(=O)[C@H](CCC(N)=O)NC(=O)[C@@H](NC(=O)[C@H](C)NC(=O)[C@H](C)NC(=O)[C@H](CCC(=O)O)NC(=O)[C@H](CCC(=O)O)NC(=O)[C@H](CCCCNC(=O)COCCOCCNC(=O)COCCOCCNC(=O)CC[C@H](NC(=O)CCCCCCCCCCCCCCCCCCC(=O)O)C(=O)O)NC(=O)[C@H](CC(C)C)NC(=O)[C@H](Cc1ccc(O)cc1)NC(=O)[C@H](CO)NC(=O)[C@@H](NC(=O)[C@H](CC(=O)O)NC(=O)[C@H](CO)NC(=O)[C@@H](NC(=O)[C@H](Cc1ccccc1)NC(=O)[C@@H](NC(=O)CNC(=O)[C@H](CCC(=O)O)NC(=O)C(C)(C)NC(=O)[C@@H](N)Cc1c[nH]cn1)[C@@H](C)O)[C@@H](C)O)C(C)C)[C@@H](C)O)C(=O)N[C@@H](CCC(=O)O)C(=O)N[C@@H](Cc1c[nH]cn1)C(=O)N[C@@H](CC(C)C)C(=O)N[C@H](C(N)=O)C(C)C [compound 30] (H-H[Aib]EGTFTSDVSYLK([AEEA-AEEA-γGlu-C20 diacid])EEAATQRFLEHLV-NH2),0.08,6899,–,–,–,22387,0.0126 nM,251 nM,–,–,–
CC(C)C[C@H](NC(=O)[C@H](Cc1ccccc1)NC(=O)[C@H](CCCNC(=N)N)NC(=O)[C@H](CCC(N)=O)NC(=O)[C@H](C)NC(=O)[C@H](C)NC(=O)[C@H](C)NC(=O)[C@H](Cc1ccccc1)NC(=O)[C@H](CCC(=O)O)NC(=O)[C@H](CCCCNC(=O)COCCOCCNC(=O)COCCOCCNC(=O)CC[C@H](NC(=O)CCCCCCCCCCCCCCCCCCC(=O)O)C(=O)O)NC(=O)[C@H](CC(C)C)NC(=O)[C@H](CCCNC(=N)N)NC(=O)[C@H](CO)NC(=O)[C@@H](NC(=O)[C@H](CC(=O)O)NC(=O)[C@H](CO)NC(=O)[C@@H](NC(=O)[C@H](Cc1ccccc1)NC(=O)[C@@H](NC(=O)CNC(=O)[C@H](CCC(=O)O)NC(=O)C(C)(C)NC(=O)[C@@H](N)Cc1c[nH]cn1)[C@@H](C)O)[C@@H](C)O)C(C)C)C(=O)N[C@@H](CCC(=O)O)C(=O)N[C@@H](Cc1c[nH]cn1)C(=O)N[C@@H](CC(C)C)C(=O)N[C@H](C(N)=O)C(C)C [compound 2] (H-H[Aib]EGTFTSDVSRLK([AEEA-AEEA-γGlu-C20 diacid])EFAAAQRFLEHLV-NH2),0.08,89647,–,–,–,6431,0.0794 nM,501 nM,–,–,–
CC[C@H](C)[C@H](NC(=O)[C@H](Cc1ccccc1)NC(=O)[C@H](CCCNC(=N)N)NC(=O)[C@H](CCC(N)=O)NC(=O)[C@H](CC(C)C)NC(=O)[C@H](C)NC(=O)[C@H](C)NC(=O)CNC(=O)[C@H](CCC(=O)O)NC(=O)[C@H](CC(C)C)NC(=O)[C@H](CC(C)C)NC(=O)C(C)(C)NC(=O)[C@H](CO)NC(=O)[C@@H]1CCCN1C(=O)[C@H](CC(=O)O)NC(=O)[C@H](CO)NC(=O)[C@@H](NC(=O)[C@H](Cc1ccccc1)NC(=O)[C@@H](NC(=O)CNC(=O)[C@H](CCC(=O)O)NC(=O)C(C)(C)NC(=O)[C@@H](N)Cc1c[nH]cn1)[C@@H](C)O)[C@@H](C)O)C(=O)N[C@@H](CCC(N)=O)C(=O)N[C@@H](Cc1c[nH]c2ccccc12)C(=O)N[C@@H](CC(C)C)C(=O)N[C@H](C(N)=O)C(C)C [compound 125] (H-H[Aib]EGTFTSDPS[Aib]LLEGAALQRFIQWLV-NH2),0.11,4675,3.98 nM,2342,10000 nM,–,–,–,–,–,–
CC[C@H](C)[C@H](NC(=O)[C@H](Cc1ccccc1)NC(=O)[C@H](CCCNC(=N)N)NC(=O)[C@H](CCC(N)=O)NC(=O)[C@H](CC(C)C)NC(=O)[C@H](C)NC(=O)[C@H](C)NC(=O)CNC(=O)[C@H](CCC(=O)O)NC(=O)[C@H](CC(C)C)NC(=O)[C@H](CC(C)C)NC(=O)[C@H](Cc1c[nH]c2ccccc12)NC(=O)[C@H](CO)NC(=O)[C@H](Cc1c[nH]c2ccccc12)NC(=O)[C@H](CC(=O)O)NC(=O)[C@H](CO)NC(=O)[C@@H](NC(=O)[C@H](Cc1ccccc1)NC(=O)[C@@H](NC(=O)CNC(=O)[C@H](CCC(=O)O)NC(=O)C(C)(C)NC(=O)[C@@H](N)Cc1c[nH]cn1)[C@@H](C)O)[C@@H](C)O)C(=O)N[C@@H](CCC(N)=O)C(=O)N[C@@H](Cc1c[nH]c2ccccc12)C(=O)N[C@@H](CC(C)C)C(=O)N[C@H](C(N)=O)C(C)C [compound 191] (H-H[Aib]EGTFTSDWSWLLEGAALQRFIQWLV-NH2),0.61,120310,–,–,–,–,–,–,0.0794 nM,904,63.1 nM
CC[C@H](C)[C@H](NC(=O)[C@H](Cc1ccccc1)NC(=O)[C@H](CCCNC(=N)N)NC(=O)[C@H](CCC(N)=O)NC(=O)[C@H](CC(C)C)NC(=O)[C@H](C)NC(=O)[C@H](C)NC(=O)CNC(=O)[C@H](CCC(=O)O)NC(=O)[C@H](CC(C)C)NC(=O)[C@H](CC(C)C)NC(=O)[C@H](Cc1ccc(O)cc1)NC(=O)[C@H](CO)NC(=O)C(C)(C)NC(=O)[C@H](CC(=O)O)NC(=O)[C@H](CO)NC(=O)[C@@H](NC(=O)[C@H](Cc1ccccc1)NC(=O)[C@@H](NC(=O)CNC(=O)[C@H](CCC(=O)O)NC(=O)C(C)(C)NC(=O)[C@@H](N)Cc1c[nH]cn1)[C@@H](C)O)[C@@H](C)O)C(=O)N[C@@H](CCC(N)=O)C(=O)N[C@@H](Cc1c[nH]c2ccccc12)C(=O)N[C@@H](CC(C)C)C(=O)N[C@H](C(N)=O)C(C)C [compound 106] (H-H[Aib]EGTFTSD[Aib]SYLLEGAALQRFIQWLV-NH2),0.74,11918,0.0158 nM,100392,1580 nM,–,–,–,–,–,–
